{"source": "patent US6358885B1", "about": "“Substituted phenylheterocyclic herbicides” (Mississippi State University, priority 1992, dated 2002)", "assay_in_all_cases": "Test B preemergence/postemergence greenhouse plant response rating 0 to 10", "details_in_all_cases": "0 to 10 scale", "key": {"[1]": {"tested_on": "sorghum", "assay_type": "in vivo, Sorghum bicolor", "outline": "(§1)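 Test chemicals, dissolved in a non-phytotoxic solvent, were applied to soil at planting and, at the same time, over foliage of seedlings at the one to four leaf stage.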"}, "[2]": {"tested_on": "cotton", "assay_type": "in vivo, Gossypium hirsutum", "outline": "as §1"}, "[3]": {"tested_on": "corn", "assay_type": "in vivo, Zea mays", "outline": "as §1"}, "[4]": {"tested_on": "bedstraw", "assay_type": "in vivo, Galium aparine", "outline": "as §1"}, "[5]": {"tested_on": "velvetleaf", "assay_type": "in vivo, Abutilon theophrasti", "outline": "as §1"}, "[6]": {"tested_on": "rice", "assay_type": "in vivo, Oryza sativa", "outline": "as §1"}, "[7]": {"tested_on": "cheatgrass", "assay_type": "in vivo, Bromus secalinus", "outline": "as §1"}, "[8]": {"tested_on": "rape", "assay_type": "in vivo, Brassica napus", "outline": "as §1"}, "[9]": {"tested_on": "chickweed", "assay_type": "in vivo, Stellaria media", "outline": "as §1"}, "[10]": {"tested_on": "barnyardgrass", "assay_type": "in vivo, Echinochloa crus-galli", "outline": "as §1"}, "[11]": {"tested_on": "crabgrass", "assay_type": "in vivo, Digitaria spp.", "outline": "as §1"}, "[12]": {"tested_on": "purple nutsedge", "assay_type": "in vivo, Cyperus rotundus", "outline": "as §1"}, "[13]": {"tested_on": "wheat", "assay_type": "in vivo, Triticum aestivum", "outline": "as §1"}, "[14]": {"tested_on": "barley", "assay_type": "in vivo, Hordeum vulgare", "outline": "as §1"}, "[15]": {"tested_on": "morningglory", "assay_type": "in vivo, Ipomoea hederacea", "outline": "as §1"}, "[16]": {"tested_on": "blackgrass", "assay_type": "in vivo, Alopecurus myosuroides", "outline": "as §1"}, "[17]": {"tested_on": "wild buckwheat", "assay_type": "in vivo, Polygonum convolvulus", "outline": "as §1"}, "[18]": {"tested_on": "giant foxtail", "assay_type": "in vivo, Setaria faberii", "outline": "as §1"}, "[19]": {"tested_on": "sugar beet", "assay_type": "in vivo, Beta vulgaris", "outline": "as §1"}, "[20]": {"tested_on": "soybean", "assay_type": "in vivo, Glycine max", "outline": "as §1"}, "[21]": {"tested_on": "cocklebur", "assay_type": "in vivo, Xanthium pensylvanicum", "outline": "as §1"}, "[22]": {"tested_on": "lambsquarters", "assay_type": "in vivo, Chenopodium album", "outline": "as §1"}, "[23]": {"tested_on": "wild oat", "assay_type": "in vivo, Avena fatua", "outline": "as §1"}}, "data": [{"compound": "C=CCOC(=O)COc1cc(-c2nn3c(c2Cl)CCCC3)c(F)cc1Cl", "note": "[Compound 62]", "values": [{"measurement": "Plant response rating, Sorghum", "setting": "[1]; POSTEMERGENCE, Rate 10 g/ha", "value": 2}, {"measurement": "Plant response rating, Sorghum", "setting": "[1]; POSTEMERGENCE, Rate 50 g/ha", "value": 2}, {"measurement": "Plant response rating, Sorghum", "setting": "[1]; PREEMERGENCE, Rate 50 g/ha", "value": 0}, {"measurement": "Plant response rating, Cotton", "setting": "[2]; POSTEMERGENCE, Rate 10 g/ha", "value": 10}, {"measurement": "Plant response rating, Cotton", "setting": "[2]; POSTEMERGENCE, Rate 50 g/ha", "value": 10}, {"measurement": "Plant response rating, Cotton", "setting": "[2]; PREEMERGENCE, Rate 10 g/ha", "value": 0}, {"measurement": "Plant response rating, Cotton", "setting": "[2]; PREEMERGENCE, Rate 50 g/ha", "value": 0}, {"measurement": "Plant response rating, Corn", "setting": "[3]; POSTEMERGENCE, Rate 10 g/ha", "value": 2}, {"measurement": "Plant response rating, Corn", "setting": "[3]; POSTEMERGENCE, Rate 50 g/ha", "value": 5}, {"measurement": "Plant response rating, Corn", "setting": "[3]; PREEMERGENCE, Rate 50 g/ha", "value": 0}, {"measurement": "Plant response rating, Bedstraw", "setting": "[4]; POSTEMERGENCE, Rate 10 g/ha", "value": 8}, {"measurement": "Plant response rating, Bedstraw", "setting": "[4]; POSTEMERGENCE, Rate 50 g/ha", "value": 9}, {"measurement": "Plant response rating, Bedstraw", "setting": "[4]; PREEMERGENCE, Rate 10 g/ha", "value": 7}, {"measurement": "Plant response rating, Bedstraw", "setting": "[4]; PREEMERGENCE, Rate 50 g/ha", "value": 7}, {"measurement": "Plant response rating, Velvetleaf", "setting": "[5]; POSTEMERGENCE, Rate 10 g/ha", "value": 7}, {"measurement": "Plant response rating, Velvetleaf", "setting": "[5]; POSTEMERGENCE, Rate 50 g/ha", "value": 10}, {"measurement": "Plant response rating, Velvetleaf", "setting": "[5]; PREEMERGENCE, Rate 50 g/ha", "value": 2}, {"measurement": "Plant response rating, Rice", "setting": "[6]; POSTEMERGENCE, Rate 10 g/ha", "value": 3}, {"measurement": "Plant response rating, Rice", "setting": "[6]; POSTEMERGENCE, Rate 50 g/ha", "value": 3}, {"measurement": "Plant response rating, Rice", "setting": "[6]; PREEMERGENCE, Rate 50 g/ha", "value": 0}, {"measurement": "Plant response rating, Cheatgrass", "setting": "[7]; POSTEMERGENCE, Rate 10 g/ha", "value": 1}, {"measurement": "Plant response rating, Cheatgrass", "setting": "[7]; POSTEMERGENCE, Rate 50 g/ha", "value": 2}, {"measurement": "Plant response rating, Cheatgrass", "setting": "[7]; PREEMERGENCE, Rate 10 g/ha", "value": 0}, {"measurement": "Plant response rating, Cheatgrass", "setting": "[7]; PREEMERGENCE, Rate 50 g/ha", "value": 0}, {"measurement": "Plant response rating, Rape", "setting": "[8]; POSTEMERGENCE, Rate 10 g/ha", "value": 1}, {"measurement": "Plant response rating, Rape", "setting": "[8]; POSTEMERGENCE, Rate 50 g/ha", "value": 6}, {"measurement": "Plant response rating, Rape", "setting": "[8]; PREEMERGENCE, Rate 50 g/ha", "value": 0}, {"measurement": "Plant response rating, Chickweed", "setting": "[9]; POSTEMERGENCE, Rate 10 g/ha", "value": 0}, {"measurement": "Plant response rating, Chickweed", "setting": "[9]; POSTEMERGENCE, Rate 50 g/ha", "value": 3}, {"measurement": "Plant response rating, Chickweed", "setting": "[9]; PREEMERGENCE, Rate 50 g/ha", "value": 0}, {"measurement": "Plant response rating, Barnyardgrass", "setting": "[10]; POSTEMERGENCE, Rate 10 g/ha", "value": 2}, {"measurement": "Plant response rating, Barnyardgrass", "setting": "[10]; POSTEMERGENCE, Rate 50 g/ha", "value": 3}, {"measurement": "Plant response rating, Barnyardgrass", "setting": "[10]; PREEMERGENCE, Rate 10 g/ha", "value": 0}, {"measurement": "Plant response rating, Barnyardgrass", "setting": "[10]; PREEMERGENCE, Rate 50 g/ha", "value": 0}, {"measurement": "Plant response rating, Crabgrass", "setting": "[11]; POSTEMERGENCE, Rate 10 g/ha", "value": 1}, {"measurement": "Plant response rating, Crabgrass", "setting": "[11]; POSTEMERGENCE, Rate 50 g/ha", "value": 2}, {"measurement": "Plant response rating, Crabgrass", "setting": "[11]; PREEMERGENCE, Rate 10 g/ha", "value": 0}, {"measurement": "Plant response rating, Crabgrass", "setting": "[11]; PREEMERGENCE, Rate 50 g/ha", "value": 0}, {"measurement": "Plant response rating, Nutsedge", "setting": "[12]; POSTEMERGENCE, Rate 10 g/ha", "value": 0}, {"measurement": "Plant response rating, Nutsedge", "setting": "[12]; POSTEMERGENCE, Rate 50 g/ha", "value": 0}, {"measurement": "Plant response rating, Nutsedge", "setting": "[12]; PREEMERGENCE, Rate 50 g/ha", "value": 0}, {"measurement": "Plant response rating, Wheat", "setting": "[13]; POSTEMERGENCE, Rate 10 g/ha", "value": 2}, {"measurement": "Plant response rating, Wheat", "setting": "[13]; POSTEMERGENCE, Rate 50 g/ha", "value": 2}, {"measurement": "Plant response rating, Wheat", "setting": "[13]; PREEMERGENCE, Rate 50 g/ha", "value": 2}, {"measurement": "Plant response rating, Barley", "setting": "[14]; POSTEMERGENCE, Rate 10 g/ha", "value": 1}, {"measurement": "Plant response rating, Barley", "setting": "[14]; POSTEMERGENCE, Rate 50 g/ha", "value": 1}, {"measurement": "Plant response rating, Barley", "setting": "[14]; PREEMERGENCE, Rate 10 g/ha", "value": 0}, {"measurement": "Plant response rating, Barley", "setting": "[14]; PREEMERGENCE, Rate 50 g/ha", "value": 0}, {"measurement": "Plant response rating, Morningglory", "setting": "[15]; POSTEMERGENCE, Rate 10 g/ha", "value": 6}, {"measurement": "Plant response rating, Morningglory", "setting": "[15]; POSTEMERGENCE, Rate 50 g/ha", "value": 9}, {"measurement": "Plant response rating, Morningglory", "setting": "[15]; PREEMERGENCE, Rate 50 g/ha", "value": 0}, {"measurement": "Plant response rating, Blackgrass", "setting": "[16]; POSTEMERGENCE, Rate 10 g/ha", "value": 1}, {"measurement": "Plant response rating, Blackgrass", "setting": "[16]; POSTEMERGENCE, Rate 50 g/ha", "value": 2}, {"measurement": "Plant response rating, Blackgrass", "setting": "[16]; PREEMERGENCE, Rate 10 g/ha", "value": 0}, {"measurement": "Plant response rating, Blackgrass", "setting": "[16]; PREEMERGENCE, Rate 50 g/ha", "value": 0}, {"measurement": "Plant response rating, Wild buckwheat", "setting": "[17]; POSTEMERGENCE, Rate 10 g/ha", "value": 2}, {"measurement": "Plant response rating, Wild buckwheat", "setting": "[17]; POSTEMERGENCE, Rate 50 g/ha", "value": 10}, {"measurement": "Plant response rating, Wild buckwheat", "setting": "[17]; PREEMERGENCE, Rate 50 g/ha", "value": 0}, {"measurement": "Plant response rating, Giant foxtail", "setting": "[18]; POSTEMERGENCE, Rate 10 g/ha", "value": 1}, {"measurement": "Plant response rating, Giant foxtail", "setting": "[18]; POSTEMERGENCE, Rate 50 g/ha", "value": 3}, {"measurement": "Plant response rating, Giant foxtail", "setting": "[18]; PREEMERGENCE, Rate 10 g/ha", "value": 0}, {"measurement": "Plant response rating, Giant foxtail", "setting": "[18]; PREEMERGENCE, Rate 50 g/ha", "value": 0}, {"measurement": "Plant response rating, Sugar beet", "setting": "[19]; POSTEMERGENCE, Rate 10 g/ha", "value": 10}, {"measurement": "Plant response rating, Sugar beet", "setting": "[19]; POSTEMERGENCE, Rate 50 g/ha", "value": 10}, {"measurement": "Plant response rating, Sugar beet", "setting": "[19]; PREEMERGENCE, Rate 50 g/ha", "value": 10}, {"measurement": "Plant response rating, Soybean", "setting": "[20]; POSTEMERGENCE, Rate 10 g/ha", "value": 2}, {"measurement": "Plant response rating, Soybean", "setting": "[20]; POSTEMERGENCE, Rate 50 g/ha", "value": 8}, {"measurement": "Plant response rating, Soybean", "setting": "[20]; PREEMERGENCE, Rate 50 g/ha", "value": 0}, {"measurement": "Plant response rating, Cocklebur", "setting": "[21]; POSTEMERGENCE, Rate 10 g/ha", "value": 5}, {"measurement": "Plant response rating, Cocklebur", "setting": "[21]; POSTEMERGENCE, Rate 50 g/ha", "value": 9}, {"measurement": "Plant response rating, Cocklebur", "setting": "[21]; PREEMERGENCE, Rate 10 g/ha", "value": 0}, {"measurement": "Plant response rating, Cocklebur", "setting": "[21]; PREEMERGENCE, Rate 50 g/ha", "value": 0}, {"measurement": "Plant response rating, Lambsquarter", "setting": "[22]; POSTEMERGENCE, Rate 10 g/ha", "value": 8}, {"measurement": "Plant response rating, Lambsquarter", "setting": "[22]; POSTEMERGENCE, Rate 50 g/ha", "value": 9}, {"measurement": "Plant response rating, Lambsquarter", "setting": "[22]; PREEMERGENCE, Rate 50 g/ha", "value": 9}, {"measurement": "Plant response rating, Wild oat", "setting": "[23]; POSTEMERGENCE, Rate 10 g/ha", "value": 1}, {"measurement": "Plant response rating, Wild oat", "setting": "[23]; POSTEMERGENCE, Rate 50 g/ha", "value": 2}, {"measurement": "Plant response rating, Wild oat", "setting": "[23]; PREEMERGENCE, Rate 50 g/ha", "value": 0}]}]}
